# Results taken from ChEMBL document CHEMBL3301361, “Experimental in vitro DMPK and physicochemical data on a set of publicly disclosed compounds”.
# Assay: physchem
# Settings: pH 7.4 buffer
row,Compound,solubility thermodynamic [µM]
1,CN(C(=O)Cc1ccc(S(C)(=O)=O)cc1)[C@@H]1CCN(Cc2nc3cc(F)ccc3s2)C[C@@H]1F,1.8
2,COc1cc2ncc(C#N)c(Nc3ccc(Oc4ccccc4)cc3)c2cc1OC,1.4
3,COc1ccc(Br)c(C=O)c1O,468
4,CN(C)CCCN(C)S(=O)(=O)c1ccc(Nc2nccc(-c3cnc4ccccn34)n2)cc1,309
5,Oc1cc(-c2ccccc2)nc2ccc(Cl)cc12,5.9
6,N=C1S/C(=C/c2ccco2)C(=O)N1c1nccs1,182
7,Cc1ccc(Nc2nc(C)nc3c2oc2ccccc23)cc1,0.5
8,CNC(=O)[C@@H](C)Oc1cccc2ncnc(Nc3ccc4c(cnn4Cc4ccccn4)c3)c12,6
9,COCC(=O)NC/C=C/c1ccc2ncnc(Nc3ccc(Oc4ccc(C)nc4)c(C)c3)c2c1 [CP-724714],1.1
10,C[C@@H](Oc1cccc2ncnc(Nc3ccc4c(cnn4Cc4nccs4)c3)c12)C(=O)N(C)C,29.5
11,COc1ccc(/C=C\c2cc(OC)c(OC)c(OC)c2)cc1NC(=O)[C@@H](N)CO [OMBRABULIN],1510
12,COc1ccc(Cn2c(CCc3c[nH]c4ccccc34)nnc2[C@@H](Cc2c[nH]c3ccccc23)NC(=O)C(C)(C)N)cc1,182
13,CCc1c[nH]nc1NC(=O)Cc1ccc(Oc2ccnc3cc(OC)ccc23)cc1OC,7.4
14,Clc1cccc(CNc2[nH]nc3cccc(Oc4ccccc4)c23)c1,1.3
15,Nc1nccc(/C=C/c2c(Cl)nc3sccn23)n1,324
16,CCCCC(CC)CNC(=O)c1ccc2c(c1)c(Cc1ccc(C(=O)NS(=O)(=O)c3ccccc3C)cc1OC)cn2C (stereo not given),6.5
17,O=c1c2ccccc2oc2ccccc12 [XANTHONE],20
18,Cc1cc2n[nH]c(=O)n2c2cc(-c3ccc([S+](C)[O-])cc3)ccc12 (stereo not given),1.9
19,CNC(=O)[C@@H](C)Oc1cccc2ncnc(Nc3ccc4c(cnn4Cc4nccs4)c3)c12,1.3
20,c1ccc(Nc2ncnc3ccccc23)cc1,132

row,Compound,solubility thermodynamic [µM]
1,c1ccc(-c2nc(-c3ccccc3)c(-c3ccccc3)o2)cc1,1.9
2,COc1cc2c(Nc3c(Cl)ccc4c3OCO4)ncnc2cc1OCc1ccnc(C#N)c1,10.2
3,O=C1CCC(N2C(=O)c3ccccc3C2=O)C(=O)N1 (stereo not given) [THALIDOMIDE],155
4,CNC(=O)[C@@H](NC(=O)[C@H](CC(C)C)[C@H](Sc1ccc(OC)c(OC)c1)C(=O)NO)C(C)(C)C,1290
5,COc1cc2ncnc(Nc3cc(NC(=O)c4ccccc4)c(Cl)cc3F)c2cc1OC,1.9
6,CN(C(=O)Cc1ccc(-n2cnnn2)cc1)C1CCN(Cc2nc3c(s2)CCCC3)CC1,9.8
7,O=C(O)c1cc2c(Cl)cccc2n1Cc1ccc(Cl)c(Cl)c1,66.1
8,Nc1c2c(O)nc(O)cc2nn1-c1ccccc1,178
9,COc1cc(-c2cnc(N)c(-c3nc4ccccc4[nH]3)c2)cc(OC)c1OC,0.5
10,Cc1cc2oc(=O)cc(Cn3ccnc3)c2cc1C,33.9
11,Cc1ccc(-c2cn3cccnc3n2)cc1,251
12,COCCN(C)S(=O)(=O)c1ccc(Nc2nccc(-c3cnc(C)n3C)n2)cc1,56.2
13,Cc1ccc(-c2nnc(-c3ccccc3)o2)cc1,6.2
14,CCc1cc(NC(=O)Cc2ccc(Oc3ccnc4cc(OC)ccc34)cc2OC)no1,4.2
15,Cc1cn(-c2cc(NC(=O)c3ccc(C)c(Nc4nccc(-c5cccnc5)n4)c3)cc(C(F)(F)F)c2)cn1 [NILOTINIB],1.1
16,NS(=O)(=O)c1ccc(Nc2nccc(-c3cnc4ccccn34)n2)cc1,6.5
17,COc1ccc(NCc2ccc(C(=O)Nc3ccccc3N)cc2)cc1OC,57.5
18,COc1ccc2c(Oc3cnc(CC(=O)Nc4cn(C)nc4C)c(OC)c3)ccnc2c1,15.1
19,O=C(NNc1nc2ccccc2o1)c1ccccc1,129

# The next lines start with the values.
row,solubility thermodynamic [µM],Compound
1,851,Cc1ccc(NC(=O)c2ccnc(N3CCOCC3)c2)cc1-n1c(C)nc2ccc(N3CCN(C)CC3)cc2c1=O
2,9.3,CS(=O)(=O)Cc1cc(N2CCOCC2)nc(-c2ccc3[nH]ccc3c2)n1
3,50.1,COc1ccc(Cl)c(Nc2ncnc3cc(OCCCN4CCN(C(C)=O)CC4)cc(OC(C)C)c23)n1
4,0.4,COc1cc2c(Nc3ncc(CC(=O)Nc4ccccc4)s3)ncnc2cc1OCCCN1CCOCC1
5,2.5,COc1cc2ncnc(Nc3ccc(F)c(Cl)c3)c2cc1OCCCn1ccnc1
6,759,O=C(O)c1c(Cl)c2ccccc2n1Cc1ccc(Cl)c(Cl)c1
7,9.5,CN(C)S(=O)(=O)n1c2ccccc2c2cc(NC(=O)CCc3ccncc3)ccc21
8,34.7,N#Cc1ccccc1COc1cc(OCCCN2CCCC2)ccc1C(=O)Nc1ccccc1
9,2.6,CN(C)C(=O)[C@H](Cc1ccccc1)NC(=O)c1cc2cc(Cl)ccc2[nH]1
10,240,COc1cc2c(Nc3ccc(Br)cc3F)ncnc2cc1OC/C=C/CN1CCCC1
11,3.5,CN(c1ccnc(Nc2cccc(S(C)(=O)=O)c2)n1)c1c(Cl)ccc2c1OCO2
12,85.1,O=C(O)CCC[C@@H]1c2ccccc2C[C@H]1NC(=O)c1cc2cc(F)ccc2[nH]1
13,13.2,COc1cc2ncnc(Nc3cccc(Cl)c3F)c2cc1CN(C)CC(N)=O
14,1290,COc1cc(NS(=O)(=O)c2ccc(N)cc2)nc(OC)n1 [SULFADIMETHOXINE]
15,851,Cc1noc(C)c1CCC1CCN(S(=O)(=O)CC2(N(O)C=O)CCOC(C)(C)C2)CC1 (stereo not given)
16,263,COc1ccccc1C[C@@H](C(=O)O)N1CCC(CN2CCC(Oc3ccc(Cl)c(Cl)c3)CC2)CC1
17,2.9,COc1cccc(NC(=O)Cn2cc(Oc3ncnc4cc(OC)c(OC)cc34)cn2)c1
18,4.1,C[C@@H]1CN(C(=O)OC(C)(C)C)C[C@H](C)N1c1ncc(OCc2ccc(S(C)(=O)=O)cc2)cn1
19,813,COc1ccc2[nH]c3c(c2c1)CN(C(=O)[C@@H]1CCCC[C@H]1C(=O)NC1(C#N)CC1)CC3

row,solubility thermodynamic [µM],Compound
1,158,Cc1ncc(-c2nc(Nc3ccc(N4CCN(C(=O)CO)CC4)cc3)ncc2F)n1C(C)C
2,2.5,O=C(Nc1ccc(N2CC[S+]([O-])CC2)nc1)c1nnc(Nc2ccccc2F)o1
3,708,Cc1cc(O)nc(SCC(=O)c2ccccc2)n1
4,31.6,CN(C)C(=O)c1nnsc1Sc1ccc(Cl)cc1
5,1050,CCN1CCC[C@@H](C(=O)N2CCN(C(=O)Nc3ccc(Cl)c(Cl)c3)CC2)C1
6,15.5,COc1cccc(N(C)c2ccnc(Nc3cc(N4CCOCC4)cc(N4CCOCC4)c3)n2)n1
7,2.5,COc1ccc([C@H](CC(=O)O)N2CCN(CCCc3ccc4c(n3)NCCC4)C2=O)cn1
8,10.7,CCn1cc(NC(=O)Cc2ccc(Oc3ccnc4cc(OC)c(OC)cc34)cc2)cn1
9,1.7,Cc1c(NC(=O)OC[C@@H]2COCCN2)cn2ncnc(Nc3ccc4c(cnn4Cc4cccc(F)c4)c3)c12 [AC-480]
10,550,COc1ccc(Cn2c(CCc3c[nH]c4ccccc34)nnc2[C@@H](Cc2c[nH]c3ccccc23)NC(=O)C2CCNCC2)c(OC)c1
11,14.1,C[C@H](COc1cccc2ncnc(Nc3ccc(OCc4ccccn4)c(Cl)c3)c12)N(C)C(=O)CO
12,295,O=C(Nc1nccs1)[C@H](CC1CCOCC1)c1ccc(S(=O)(=O)C2CC2)cc1
13,61.7,CC(C)(C)OC(=O)N1CCC(c2ncc(OCc3ccc(S(C)(=O)=O)cc3)cn2)CC1
14,603,Cc1noc2cc(N3CCN(C(=O)[C@@H]4CCCC[C@H]4C(=O)NC4(C#N)CC4)[C@H](C)C3)ccc12
15,72.4,COc1ccc(Cl)c(Nc2ncnc3cc(OCCCN4CCOCC4)c(OC)cc23)c1
16,347,CNc1nc2ccc(NC(C)=O)cc2s1
17,490,CCN(C(=O)Cc1ccc(S(C)(=O)=O)cc1)C1CCN(CC[C@@H](c2ccccc2)N2CCN(S(=O)(=O)CC(F)(F)F)CC2)CC1
18,28.8,O=C(c1ccccc1)C1CCN(C(=O)c2ccc(Cl)cc2)CC1
19,3.8,COC[C@@H](C(N)=O)N(C)Cc1cc2c(Nc3cccc(Cl)c3F)ncnc2cc1OC

row,solubility thermodynamic [µM],Compound
1,77.6,COc1cc2ncnc(Nc3cccc(Cl)c3F)c2cc1CN1CC[C@H](C(N)=O)C1
2,56.2,Cc1ncc(-c2ccnc(Nc3ccc(N4CCOCC4)cc3)n2)n1C(C)C
3,427,O=C(c1ccccc1)C1CCN(C(=O)c2ccco2)CC1
4,10,COc1cc2ncnc(Nc3cccc(Cl)c3F)c2cc1CN1CCCC[C@@H]1C(N)=O
5,0.5,CS(=O)(=O)c1cccc(CNc2nc(Nc3ccc4c(c3)CCC(=O)N4)ncc2C(F)(F)F)c1
6,8.7,O=C(N1CCC(c2ccncc2)CC1)N1CCN(S(=O)(=O)c2ccc(Cl)cc2)CC1
7,5.9,Cc1ccc(C)c(N(C)c2ccnc(Nc3cc(N4CCOCC4)cc(N4CCOCC4)c3)n2)c1
8,44.7,N=C(N)c1ccc2cc(C(=O)Nc3ccc4c(c3)OCO4)ccc2c1
9,0.2,CS(=O)(=O)N1CC2(CCN(C(=O)Nc3cnc(-c4ccccc4)cn3)CC2)c2ccccc21
10,200,O=C(c1ccc(F)cc1)C1CCN(C(=O)c2ccccc2)CC1
11,2.2,Nc1nc(Nc2ccc(Cl)cc2)cc(-c2ccccc2)n1
12,759,COc1cc2c(Nc3ccc(Cl)cc3F)ncnc2cc1OC/C=C/CN1CCCC1
13,28.8,O=C(c1ccc(F)cc1)C1CCN(C(=O)c2ccccc2Cl)CC1
14,12,COc1ccc(Cl)cc1NC(=O)c1cnccn1
15,1070,Cc1sc(N2CCN(C(=O)[C@@H]3CCCC[C@H]3C(=O)NC3(C#N)CC3)CC2)nc1C(F)(F)F
16,190,COCC(C)(C)Oc1cc(O[C@@H](C)Cc2ccccc2)cc(C(=O)Nc2ccc(C(=O)O)cn2)c1
17,275,CS(=O)(=O)c1ccc(N2CCN(C(=O)[C@@H]3CCCC[C@H]3C(=O)NCC#N)CC2)cc1
18,69.2,COc1ccc(N2CCNCC2)cc1Nc1ncc(Cl)c(-c2cnc3ccccn23)n1
